From patent publication US6503935B1, “Imidazoles and related compounds as α1A agonists” (Abbott Laboratories, priority 1998, dated 2003) come the findings set out here.

Structures can show the parent of a compound that is named as a salt. Where two headings read alike, the source gives them in different places.

For experiment [1], the target named is T1, α1A (rat submaxillary gland) (Rattus norvegicus, UniProt P43140).
T1 construct: α1A (rat submaxillary gland); from tissue; host or cells: rat submaxillary gland
T1 sequence (P43140 1-466): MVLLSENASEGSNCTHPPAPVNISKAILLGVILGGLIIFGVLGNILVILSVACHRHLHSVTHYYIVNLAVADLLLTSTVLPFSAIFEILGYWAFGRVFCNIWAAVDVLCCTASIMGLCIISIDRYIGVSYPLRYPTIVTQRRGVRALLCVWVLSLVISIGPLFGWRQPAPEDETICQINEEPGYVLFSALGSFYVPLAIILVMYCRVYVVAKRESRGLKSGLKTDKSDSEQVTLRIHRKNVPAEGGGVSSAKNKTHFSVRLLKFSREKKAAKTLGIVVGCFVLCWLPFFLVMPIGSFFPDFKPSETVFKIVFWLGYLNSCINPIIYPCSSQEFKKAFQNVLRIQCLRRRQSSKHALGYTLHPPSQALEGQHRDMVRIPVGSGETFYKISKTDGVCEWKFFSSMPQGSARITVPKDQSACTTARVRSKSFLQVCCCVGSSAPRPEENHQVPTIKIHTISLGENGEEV
The experiment in a line: Radioligand binding with [3H]-prazosin, α1A. The conditions noted are these: rat submaxillary gland, [3H]-prazosin. On the procedure: (§1) For purposes of discussing α1 adrenoceptor subtypes, the IUPHAR convention of using lower case letters to define molecular clones and upper case letters to indicate pharmacologically defined adrenoceptors has been followed. Compounds of formula I were evaluated in radioligand binding assays specific for α1A (rat submaxillary gland), α1b (hamster receptor expressed in mouse fibroblasts) and α1d (rat receptor expressed in mouse fibroblasts) using [^3H]-prazosin as the radioligand as described in Knepper, et al. J. Pharm.

The next experiment deals with T2, α1B (rat spleen) (Rattus norvegicus, UniProt P15823).
T2 construct: α1B (rat spleen) and α1D (rat aorta) receptors; from tissue; host or cells: rat spleen
T2 sequence (P15823 1-515): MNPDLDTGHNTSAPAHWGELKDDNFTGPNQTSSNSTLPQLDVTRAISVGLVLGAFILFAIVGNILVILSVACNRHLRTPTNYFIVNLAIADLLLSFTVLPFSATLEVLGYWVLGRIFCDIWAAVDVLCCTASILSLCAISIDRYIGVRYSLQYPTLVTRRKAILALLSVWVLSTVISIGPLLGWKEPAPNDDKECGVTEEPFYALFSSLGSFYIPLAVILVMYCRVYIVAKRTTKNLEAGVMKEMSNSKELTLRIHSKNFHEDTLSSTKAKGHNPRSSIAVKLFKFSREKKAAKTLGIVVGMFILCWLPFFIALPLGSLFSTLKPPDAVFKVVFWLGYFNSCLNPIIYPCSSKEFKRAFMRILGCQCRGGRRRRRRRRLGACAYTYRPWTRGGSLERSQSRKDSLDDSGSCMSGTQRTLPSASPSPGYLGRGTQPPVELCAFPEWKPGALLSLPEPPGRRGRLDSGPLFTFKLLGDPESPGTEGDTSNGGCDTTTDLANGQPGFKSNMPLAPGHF
Put plainly: Agonist contraction of smooth muscle tissue, rat spleen. The experiment is classed as cell-based. The conditions noted are these: rat spleen; for EC50: read-out: Agonist Tissue Response (pD2) α1B (rat spleen) (converted).

In a further experiment the target is T3, α1D (rat aorta) (Rattus norvegicus, UniProt P23944).
T3 construct: α1B (rat spleen) and α1D (rat aorta) receptors; from tissue; host or cells: rat aorta strips, endothelium removed
T3 sequence (P23944 1-561): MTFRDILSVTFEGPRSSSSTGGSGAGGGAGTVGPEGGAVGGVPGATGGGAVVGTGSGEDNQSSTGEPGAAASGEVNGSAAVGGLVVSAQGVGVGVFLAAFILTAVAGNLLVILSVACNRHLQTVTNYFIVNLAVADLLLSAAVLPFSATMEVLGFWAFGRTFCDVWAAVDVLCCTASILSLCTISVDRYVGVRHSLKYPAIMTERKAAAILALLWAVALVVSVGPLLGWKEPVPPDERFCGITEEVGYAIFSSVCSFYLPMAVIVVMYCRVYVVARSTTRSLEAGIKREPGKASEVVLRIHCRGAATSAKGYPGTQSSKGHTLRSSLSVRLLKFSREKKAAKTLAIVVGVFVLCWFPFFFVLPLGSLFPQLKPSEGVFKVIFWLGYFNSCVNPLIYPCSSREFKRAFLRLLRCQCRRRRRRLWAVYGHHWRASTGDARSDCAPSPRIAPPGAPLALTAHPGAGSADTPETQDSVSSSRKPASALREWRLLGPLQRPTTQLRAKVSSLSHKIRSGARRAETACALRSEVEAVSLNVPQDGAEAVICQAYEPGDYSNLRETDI
The experiment in a line: Agonist contraction of smooth muscle tissue, rat aorta. The experiment is classed as cell-based. The following applies: rat aorta, endothelium removed; for EC50: read-out: Agonist Tissue Response (pD2) α1D (rat aorta) (converted).

For a further experiment, the target named is T4, α1A (rabbit urethra) (Oryctolagus cuniculus, UniProt O02824).
T4 construct: tested for α1A functional activity using rabbit urethra; from tissue; host or cells: rabbit urethra
T4 sequence (O02824 1-466): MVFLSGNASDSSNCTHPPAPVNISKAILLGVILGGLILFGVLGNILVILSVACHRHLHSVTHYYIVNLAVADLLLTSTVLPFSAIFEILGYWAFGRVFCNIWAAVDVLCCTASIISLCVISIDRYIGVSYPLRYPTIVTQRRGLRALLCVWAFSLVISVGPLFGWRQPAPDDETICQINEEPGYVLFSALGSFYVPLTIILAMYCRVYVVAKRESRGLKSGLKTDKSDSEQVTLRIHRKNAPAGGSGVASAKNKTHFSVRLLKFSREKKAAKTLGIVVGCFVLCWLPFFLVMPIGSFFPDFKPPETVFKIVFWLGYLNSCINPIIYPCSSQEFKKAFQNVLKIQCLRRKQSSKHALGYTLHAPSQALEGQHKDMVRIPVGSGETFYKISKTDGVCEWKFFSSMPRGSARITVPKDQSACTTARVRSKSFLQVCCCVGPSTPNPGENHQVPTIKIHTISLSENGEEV
The experiment in a line: Agonist contraction of smooth muscle tissue, rabbit urethra. The experiment is classed as cell-based. The following applies: rabbit urethra; for EC50: read-out: Agonist Tissue Response (pD2) α1A (rab ureth) (converted). As to the method: Most of the compounds were tested for α1A functional activity using rabbit urethra as follows. Female New Zealand white rabbits (2.0-3.5 Kg) were sedated with CO2 and decapitated. […] Subsequent experimental conditions were as described above for the other tissues. Agonist concentration response curves were cumulative except for the vas deferens assay in which the transient response made such measurements impractical.

Experiment [2] deals with T5, α1d (rat receptor expressed in mouse fibroblasts) (Rattus norvegicus, UniProt P23944).
T5 construct: expressed in transfected cells; host or cells: mouse fibroblasts
T5 sequence (P23944 1-561): T3 sequence (P23944 1-561)
The experiment in a line: Radioligand binding with [3H]-prazosin, α1d. The following applies: rat receptor expressed in mouse fibroblasts, [3H]-prazosin. As to the method: as §1

Where [3] appears, read: read-out: Radioligand Binding Ki α1d (Rat).

For `O=S(=O)(CC(F)(F)F)Nc1cccc2c1CCCC2c1c[nH]cn1` (single isomer, unassigned; (-)) [Example 35, (−)-N-[5,6,7,8-tetrahydro-5-(1H-imidazol-4-yl)-1-naphthalenyl]-2,2,2-trifluoroethanesulfonamide], the Ki (in general, a measure of affinity in units of concentration, obtained from inhibition or displacement) in experiment [1] turned out to be 2.18 µM. The EC50 at α1B (rat spleen) was more than 1000 µM; on α1D (rat aorta), more than 1000 µM; on α1A (rabbit urethra) it was 81.3 µM. `CS(=O)(=O)Nc1ccc(O)c2c1CCCC2c1c[nH]cn1` (centres unmarked) [Example 24, N-[5,6,7,8-tetrahydro-4-hydroxy-5-(1H-imidazol-4-yl)-1-naphthalenyl]methanesulfonamide, maleate] showed an inhibition constant (Ki) in experiment [1] of 0.712 µM. The figures for the EC50 at α1B (rat spleen), on α1D (rat aorta) and on α1A (rabbit urethra) were more than 1000 µM, more than 1000 µM and 24.5 µM, respectively. In experiment [1], `CCS(=O)(=O)Nc1ccc(OC)c2c1CCCC2c1c[nH]cn1.O=C(O)C=CC(=O)O` (centres unmarked) [Example 25, maleate] displayed a Ki of 2.46 µM. In the case of `CCS(=O)(=O)Nc1ccc(OC)c2c1CCCC2c1c[nH]cn1.O=C(O)C=CC(=O)O` (centres unmarked) [Example 25], at α1B (rat spleen), the “Agonist Tissue Response (pD2) α1B (rat spleen)” value came out at 3.12. Moreover, at α1D (rat aorta), the “Agonist Tissue Response (pD2) α1D (rat aorta)” value was less than 3.00. Further, the “Agonist Tissue Response (pD2) α1A (rab ureth)” value on α1A (rabbit urethra) stood at 4.48. As for `O=C(O)C=CC(=O)O.O=S(=O)(Nc1cccc2c1CCCC2c1c[nH]cn1)C1CC1` (centres unmarked) [Example 27, N-[5,6,7,8-tetrahydro-(1H-imidazol-4-yl)-1-naphthalenyl]cyclopropanesulfonamide, maleate], the Ki in experiment [1] was 0.531 µM; in experiment [2] (setting [3]), 2.67 µM. In addition, the “Agonist Tissue Response (pD2) α1A (rab ureth)” value at α1A (rabbit urethra) is 5.25. As for `CS(=O)(=O)Nc1cccc2c1CCCCC2c1c[nH]cn1` (centres unmarked) [Example 38, N-[5-(1H-imidazol-4-yl)-6,7,8,9-tetrahydro-5H-benzo[a]cyclohepten-1-yl]methanesulfonamide, maleate], the Ki turned out to be 1.36 µM in experiment [1] and 2.54 µM in experiment [2] (setting [3]). The EC50 on α1A (rabbit urethra) is 19.1 µM. As to `CCS(=O)(=O)Nc1cccc2c1CCCCC2c1c[nH]cn1` (centres unmarked) [Example 40, N-[5-(1H-imidazol-4-yl)-6,7,8,9-tetrahydro-5H-benzo[a]cyclohepten-1-yl]ethanesulfonamide, maleate], the affinity in experiment [1], expressed as Ki, was 1.34 µM. For `CCS(=O)(=O)Nc1ccc(Cl)c2c1CCCC2c1c[nH]cn1` (centres unmarked) [Example 42, N-[4-chloro-5-(1H-imidazol-4-yl)-5,6,7,8-tetrahydro-1-naphthalenyl]ethanesulfonamide, maleate], the values for the Ki in experiment [1] and in experiment [2] (Radioligand Binding Ki α1d (Rat)) were 0.359 µM and 2.28 µM, respectively. The EC50 at α1A (rabbit urethra) was more than 1000 µM. Take `CCC(O)(c1cccc(NS(=O)(=O)CC)c1)c1c[nH]cn1` (centres unmarked) [Example 55, N-[3-(1-hydroxy-1-(1H-imidazol-4-yl)propyl)phenyl]ethanesulfonamide]: the inhibitory constant (Ki) amounted to 3.65 µM in experiment [1] and 2.34 µM in experiment [2] (setting [3]). As to `Cc1noc(C)c1S(=O)(=O)Nc1cccc2c1CCCC2c1cnc[nH]1` (centres unmarked) [Example 61, N-[5-(1H-imidazol-5-yl)-5,6,7,8-tetrahydro-1-naphthalenyl]-3,5-dimethyl-4-isoxazolesulfonamide], the Ki in experiment [1] was determined as 1.56 µM. Same read-out and setting: the value for `CCCS(=O)(=O)Nc1cccc2c1CCCC2c1c[nH]cn1` (centres unmarked) [Example 63, N-[5-(1H-imidazol-5-yl)-5,6,7,8-tetrahydro-1-naphthalenyl]-1-propanesulfonamide] was 1.72 µM; that for `CCCCS(=O)(=O)Nc1cccc2c1CCCC2c1cnc[nH]1` (centres unmarked) [Example 64, N-[5-(1H-imidazol-5-yl)-5,6,7,8-tetrahydro-1-naphthalenyl]-1-butanesulfonamide] was 4.15 µM; that for `Cc1ccc(S(=O)(=O)Nc2cccc3c2CCCC3c2cnc[nH]2)cc1` (centres unmarked) [Example 68, N-[5-(1H-imidazol-5-yl)-5,6,7,8-tetrahydro-1-naphthalenyl]-4-methylbenzenesulfonamide] was 5.28 µM.

As for `Cc1ccccc1S(=O)(=O)Nc1cccc2c1CCCC2c1cnc[nH]1` (centres unmarked) [Example 69, N-[5-(1H-imidazol-5-yl)-5,6,7,8-tetrahydro-1-naphthalenyl]-2-methylbenzenesulfonamide], the inhibition constant (Ki) in experiment [1] was determined as 4.47 µM. As for `O=S(=O)(Nc1cccc2c1CCCC2c1cnc[nH]1)c1ccc(Cl)s1` (centres unmarked) [Example 72, 5-Chloro-N-[5-(1H-imidazol-5-yl)-5,6,7,8-tetrahydro-1-naphthalenyl]-2-thiophenesulfonamide], the inhibition constant (Ki) in experiment [1] stood at 1.51 µM; in experiment [2] (setting [3]), 2.28 µM. `Cc1nn(C)c(Cl)c1S(=O)(=O)Nc1cccc2c1CCCC2c1cnc[nH]1` (centres unmarked) [Example 74, 5-Chloro-N-[5-(1H-imidazol-5-yl)-5,6,7,8-tetrahydro-1-naphthalenyl]-1,3-dimethyl-1H-pyrazole-4-sulfonamide] yielded a Ki in experiment [1] of 5.06 µM.

Compound `CC(=O)Nc1nc(C)c(S(=O)(=O)Nc2cccc3c2CCCC3c2cnc[nH]2)s1` (centres unmarked) [Example 76, N-[5-({[5-(1H-imidazol-5-yl)-5,6,7,8-tetrahydro-1-naphthalenyl]amino}sulfonyl)-4-methyl-1,3-thiazol-2-yl]acetamide] returned an inhibition constant (Ki) in experiment [1] of 3.21 µM. Take `O=S(=O)(CC(F)(F)F)Nc1cccc(Cc2c[nH]cn2)c1` [Example 78, 2,2,2-trifluoro-N-[3-(1H-imidazol-4-ylmethyl)phenyl]ethanesulfonamide, maleate]: the EC50 at α1A (rabbit urethra) was 8.91 µM. Compound “Methyl 2-({[5-(1H-imidazol-5-yl)-5,6,7,8-tetrahydro-1-naphthalenyl]amino}sulfonyl)-3-thiophenecarboxylate [Example 75]” showed a Ki in experiment [1] of 4.6 µM.
